Test results published in paper PMC3445516 (PLoS ONE, 2012).
Like-named read-outs stand apart in the source and are kept apart here.

What was measured:
[1] = molecular target: T1, recombinant GST-tagged human protein kinase D1 (PKD1) (Homo sapiens, UniProt Q15139); experiment: In vitro radiometric PKD1 kinase assay; assay type: biochemical; settings: for inhibition at 1 µM: read-out: Inhibition of PKD1; for IC50: dose-response, mean ± SEM of 3 independent experiments
T1 construct: purchased Enzo Life sciences (Farmingdale, NY)
T1 sequence (Q15139 1-912): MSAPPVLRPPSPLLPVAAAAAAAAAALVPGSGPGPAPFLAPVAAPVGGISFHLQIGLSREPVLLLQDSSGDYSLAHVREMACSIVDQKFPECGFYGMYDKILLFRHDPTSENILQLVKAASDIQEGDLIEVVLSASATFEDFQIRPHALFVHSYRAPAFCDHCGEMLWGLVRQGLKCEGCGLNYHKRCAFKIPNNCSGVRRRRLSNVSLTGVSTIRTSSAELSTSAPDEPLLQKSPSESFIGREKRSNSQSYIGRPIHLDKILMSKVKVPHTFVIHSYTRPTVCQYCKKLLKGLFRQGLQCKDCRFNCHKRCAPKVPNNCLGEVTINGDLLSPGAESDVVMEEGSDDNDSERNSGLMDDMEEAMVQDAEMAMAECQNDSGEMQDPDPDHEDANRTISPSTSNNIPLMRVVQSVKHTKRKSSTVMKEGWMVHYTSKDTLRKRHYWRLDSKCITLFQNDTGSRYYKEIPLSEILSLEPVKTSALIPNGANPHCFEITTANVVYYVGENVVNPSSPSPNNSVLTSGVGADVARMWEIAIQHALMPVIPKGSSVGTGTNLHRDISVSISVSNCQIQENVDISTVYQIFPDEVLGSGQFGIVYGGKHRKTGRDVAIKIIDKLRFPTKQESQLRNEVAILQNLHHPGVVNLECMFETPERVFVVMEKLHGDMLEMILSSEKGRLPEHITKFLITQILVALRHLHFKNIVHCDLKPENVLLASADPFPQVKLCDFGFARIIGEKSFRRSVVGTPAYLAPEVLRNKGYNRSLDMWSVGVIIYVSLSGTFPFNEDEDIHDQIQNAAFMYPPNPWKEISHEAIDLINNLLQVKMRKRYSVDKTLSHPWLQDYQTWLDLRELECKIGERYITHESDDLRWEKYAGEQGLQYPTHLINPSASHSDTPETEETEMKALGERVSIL
Protocol: All compounds were given distinct UPCMLD (University of Pittsburgh Center for Chemical Methodologies and Library Development) IDs and were then assigned numerical IDs for convenient data display. Evaluation of each compound was carried out in triplicate at a single concentration (1 µM). Our previously described PKD1 inhibitor, kb-NB142-70, and DMSO (solvent alone) were used as positive and negative controls, respectively. Percent residual kinase activity was calculated based on that of the negative control (DMSO).
Kinase active recombinant GST-tagged human protein kinase D1 (PKD1) was obtained from Enzo Life sciences (Farmingdale, NY). DMSO was purchased from Sigma. Recombinant PKCα, PKCδ and CAMKIIα were obtained from SignalChem (Richmond, BC, Canada). ATP was purchased from Fisher Scientific. HDAC5 substrate peptide was synthesized by Biobasic Canada Inc. (Markham, ON). Myelin basic protein 4–14 was purchased from AnaSpec Inc. (Fremont, CA). The targeted kinase inhibitor library was obtained from Hoffmann-La Roche, Inc.
1.2 µg of HDAC-5 was used as substrate in the reaction. Phosphorylation of HDAC5 was detected in a kinase reaction having 1 µCi [γ-^32P] […] The reaction was incubated at 30° for 10 minutes and 25 µL of the reaction was spotted on Whatman P81 filter paper. The filter paper was washed 3 times in 0.5% phosphoric acid, air dried and counted using Beckman LS6500 multipurpose scintillation counter. Percent PKD1 inhibition was graphed using GraphPad Prism software 5.0.

[2] = molecular target: p38δ (Homo sapiens, UniProt O15264); experiment: In vitro radiometric p38 kinase assay; assay type: biochemical
Protocol: To confirm that p38 was indeed a target of the 4-azaindole, the inhibition of p38 by the twenty-eight PKD1 inhibitors was evaluated using an in vitro radiometric p38 kinase assay. […] Taken together, our data has identified a novel PKD1 inhibitor scaffold that is active for p38α, but not for PKC, CAMK and p38δ.
(§1) Phosphorylation of 3.5 µg of p38 substrate was detected in a reaction having 1 µCi [γ-^32P] ATP (Perkin Elmer Life Sciences), 50 µM ATP, 50 ng active recombinant p38 in 50 µL kinase buffer containing 25 mM Tris-HCl, pH 7.5, 10 mM MgCl2, 5 mM β-glycerophosphate, 0.1 mM Na3VO4 and 2 mM DTT. The reaction was incubated at 30°C for 10 minutes and 25 µL of the reaction was spotted on Whatman P81 filter paper. The filter paper was washed 3 times in 0.5% phosphoric acid, air dried and counted using Beckman LS6500 multipurpose scintillation counter. Percent p38 inhibition was graphed using GraphPad Prism software 5.0.

[3] = molecular target: PKCδ (Homo sapiens, UniProt Q05655); experiment: In vitro radiometric PKC kinase assay; assay type: biochemical; parameters: purchased SignalChem (Richmond, BC, Canada)
Protocol: (§2) In this study, we counter-screened the twenty-eight PKD1 inhibitory agents for inhibition of PKCα, PKCδ and CAMKIIα in order to get an initial profile for the potential PKD selectivity, since these are the functionally most closely related kinases. The compounds were examined at 0.1, 1 and 10 µM concentration. […] Next, the inhibitory activity for CAMKIIα was examined.
(§3) The PKC kinase assay was carried out by co-incubating 1 µCi [γ-^32P]ATP, 20 µM ATP, 50 ng of purified PKCα or PKCδ and 5 µg of myelin basic protein 4–14, 0.25 mg/mL bovine serum albumin, 0.1 mg/mL phosphatidylcholine/phosphatidylserine (80/20%) (1 µM), 1 µM phorbol dibutyrate in 50 µL of kinase buffer containing 50 mM Tris-HCl, pH 7.5, 4 mM MgCl2 and 10 mM β-mercaptoethanol. For the CAMK assay, 50 ng of CAMK and 2 µg Syntide-2 substrate in 50 µL kinase buffer were incubated with 0.1 mM MgCl2, 1 µCi of [γ-^32P] ATP, 70 µM ATP. 0.5 mM CaCl2 and 30 ng/µL calmodulin were preincubated for 15 min on ice and then added in the kinase reaction. The reactions were incubated at 30°C for 10 minutes and 25 µL of the reaction was spotted on Whatman P81 filter paper. The filter paper was washed 3 times in 0.5% phosphoric acid, air dried and counted using Beckman LS6500 multipurpose scintillation counter.

[4] = molecular target: T2, PKCα (Homo sapiens, UniProt P17252); experiment: In vitro radiometric PKC kinase assay; assay type: biochemical; settings: 0.1, 1 and 10 µM; positive control
T2 construct: purchased SignalChem (Richmond, BC, Canada)
Protocol: as §2, §3

[5] = molecular target: T3, endogenous PKD1 in LNCaP prostate cancer cells (Homo sapiens, UniProt Q15139); experiment: PMA-induced activation of PKD1 in LNCaP cells (immunoblot pS916 / pS744/748); assay type: cell-based; settings: PMA 10 nM; for IC50: densitometry of pS916-PKD1 levels, read-out: cellular IC50 for inhibition of PKD1
T3 construct: endogenous in cells; host or cells: LNCaP prostate cancer cells
T3 sequence (Q15139 1-912): T1 sequence (Q15139 1-912)
Protocol: (§4) PMA induces PKC-dependent phosphorylation of Ser744/748 (S^744/748) in the activation loop followed by autophosphorylation of PKD1 on Ser916 (S^916) in the C-terminus, [31]. The catalytic activity of PKD1 correlates well with the level of phosphorylation at S^916 [31].
(§5) Figure 5 In vitro IC50, cellular activity, and mode of action of representative compounds. […] IC50 values were calculated based on the dose-response curve. Data are represented as mean ± SEM of 3 independent experiments. […] Cell lysates were subjected to immunoblotting for pS^916-PKD1 and pS^744/748-PKD1. Tubulin was blotted as loading control. The experiments were repeated three times and representative blots are shown. C.

[6] = molecular target: T4, PKD1 (Homo sapiens, UniProt Q15139); experiment: Kinetic analysis, Lineweaver-Burk plots (ATP competition); assay type: biochemical
T4 construct: purchased Enzo Life sciences (Farmingdale, NY)
Protocol: as §4, §5

[7] = molecular target: p38α (Homo sapiens, UniProt Q16539); settings: 10 and 100 nM
Protocol: as §1

[8] = tested on: LPS-stimulated TNFα synthesis; parameters: method as in PMID 14561090; settings: acute rat model of LPS-stimulated TNFα synthesis; cited from earlier work
[9] = 1 µM, triplicate determinations

Sequence of p38δ (O15264 whole entry): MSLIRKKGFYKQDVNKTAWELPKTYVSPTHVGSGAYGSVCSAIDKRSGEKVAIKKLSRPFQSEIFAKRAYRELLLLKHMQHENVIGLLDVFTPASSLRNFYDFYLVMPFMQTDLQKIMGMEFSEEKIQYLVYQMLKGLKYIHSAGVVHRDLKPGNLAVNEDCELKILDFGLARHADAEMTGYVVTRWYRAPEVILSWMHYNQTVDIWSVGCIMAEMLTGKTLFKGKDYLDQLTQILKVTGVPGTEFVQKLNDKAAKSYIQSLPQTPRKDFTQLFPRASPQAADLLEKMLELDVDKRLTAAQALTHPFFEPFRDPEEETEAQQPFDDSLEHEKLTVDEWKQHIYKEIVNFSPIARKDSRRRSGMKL
Sequence of PKCδ (Q05655 whole entry): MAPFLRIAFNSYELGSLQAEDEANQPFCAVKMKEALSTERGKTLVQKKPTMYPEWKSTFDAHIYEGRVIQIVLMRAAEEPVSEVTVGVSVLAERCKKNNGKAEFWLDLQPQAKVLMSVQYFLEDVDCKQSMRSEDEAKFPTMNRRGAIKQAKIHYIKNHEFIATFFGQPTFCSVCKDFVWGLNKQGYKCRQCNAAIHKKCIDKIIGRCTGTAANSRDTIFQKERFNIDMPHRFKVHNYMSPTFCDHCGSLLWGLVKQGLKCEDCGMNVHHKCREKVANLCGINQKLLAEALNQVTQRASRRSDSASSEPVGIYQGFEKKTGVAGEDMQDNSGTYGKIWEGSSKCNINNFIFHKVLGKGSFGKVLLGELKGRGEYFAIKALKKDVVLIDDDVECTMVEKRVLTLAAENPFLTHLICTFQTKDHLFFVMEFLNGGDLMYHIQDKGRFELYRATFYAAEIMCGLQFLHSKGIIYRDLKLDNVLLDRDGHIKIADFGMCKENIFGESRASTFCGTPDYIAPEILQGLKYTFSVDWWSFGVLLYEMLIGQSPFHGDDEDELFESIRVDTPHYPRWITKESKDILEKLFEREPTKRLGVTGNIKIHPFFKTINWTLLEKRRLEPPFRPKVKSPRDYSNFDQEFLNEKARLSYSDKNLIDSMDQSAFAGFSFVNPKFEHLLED
Sequence of p38α (Q16539 whole entry): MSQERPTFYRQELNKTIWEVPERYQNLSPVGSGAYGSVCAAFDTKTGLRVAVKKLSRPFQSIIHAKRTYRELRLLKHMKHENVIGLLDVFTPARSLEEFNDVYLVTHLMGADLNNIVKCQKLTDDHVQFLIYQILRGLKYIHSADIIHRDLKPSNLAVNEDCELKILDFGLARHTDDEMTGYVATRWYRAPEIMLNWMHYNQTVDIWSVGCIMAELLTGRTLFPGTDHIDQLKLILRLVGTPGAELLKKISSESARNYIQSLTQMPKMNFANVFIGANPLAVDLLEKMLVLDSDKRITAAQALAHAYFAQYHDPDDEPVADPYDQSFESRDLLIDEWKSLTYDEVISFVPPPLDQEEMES

inhibition at 1 µM [1, 9] [%] | inhibition at 1 µM [2] [%] | IC50 [1] [nM] | effect on PKC-induced transphosphorylation at S744/748 [5] | IC50 [5] [nM] | mode of inhibition with respect to ATP [6] | Compound | further results
62 | ≥ 50 |  |  |  |  | O=C1N=C(N[C@@H](CO)Cc2ccccc2)S/C1=C\c1ccc2ncccc2c1 [Compound 198] | inhibition at 10 µM ([3]; 10 µM, read-out: inhibition of PKCδ): ~70%
64 |  | 562 | did not affect | 18200 | competitive with respect to ATP | CNC1=NC(=O)/C(=C/c2ccc3ncccc3c2)S1 [Compound 209] | 

Continued, molecule first:

Compound | inhibition at 1 µM [1, 9] [%] | inhibition at 1 µM [2] [%] | IC50 [1] [nM] | effect on PKC-induced transphosphorylation at S744/748 [5] | IC50 [5] [nM] | mode of inhibition with respect to ATP [6] | further results
CN(C)CCCn1cc(C2=C(c3c[nH]c4ccccc34)C(=O)NC2=O)c2ccccc21 [GF109203X, reference compound] |  |  |  |  |  |  | inhibition of PKCα [4]: strongly inhibited; inhibition of PKCδ ([3]; 0.1, 1 and 10 µM, positive control): strongly inhibited
CC(CO)Nc1cc(-c2[nH]c3cccnc3c2-c2ccc(F)cc2)ccn1 (stereo not shown) [Compound 139] |  |  | 16.8 | did not affect | 1500 | competitive with respect to ATP | inhibition at 1 µM [1]: 94%; inhibition of p38α [7]: most potent; in vivo efficacy [8]: in vivo efficacy has been demonstrated
COc1cc[nH]c1/C=C1\C(=O)Nc2ccc(F)c(C#CC3(O)CCNCC3)c21 [Compound 15] | 97 | ≥ 50 |  |  |  |  | 
